In patent US20140031288A1, “NOVEL COMPOSITION FOR TUMOR GROWTH CONTROL” (Erasmus University Medical Center, priority 2006, published 2014):

How the values were obtained:
[1] = tested on: human BON carcinoid tumor cells; test: Cell proliferation assay (total DNA content, Hoechst 33258); assay type: cell-based; settings: for effect on BON carcinoid cell growth, measured as DNA content: 10^−8M, drug alone
Experimental: (§1) Human pancreatic carcinoid BON cells were obtained from Dr Townsend (The University of Texas Medical Branch, Galveston, Tex., USA). The cells were cultured in a humidified incubator containing 5% CO2 at 37° C. The culture medium consisted of a 1:1 mixture of Dulbecco's modified Eagle's medium (DMEM) and F12K medium, supplemented with 10% FCS, penicillin (1×105 U/l), fungizone (0.5 mg/l) and 1-glutamine (2 mmol/l). Periodically, cells were confirmed as Mycoplasma-free. Cells were harvested with trypsin EDTA 10% and resuspended in medium. Before plating, cells were counted microscopically using a standard hemocytometer. Trypan Blue staining was used to assess cell viability, which always exceeded 95%. Media and supplements were obtained from GIBCO Bio-cult Europe (Invitrogen, Breda, The Netherlands).
After trypsinization, the cells were plated in 1 ml of medium in 24-well plates at a density of 0.4-2×10^4 cells/well. The plates were then placed in a 37° C., 5% CO2 incubator. Three days later the cell culture medium was replaced with 1 ml/well medium containing 5-aza-2′-deoxycytidine at different concentrations in the dose curve response experiment (0, 10^−5M, 10^−6M, 10^−7M, 10^−8M and 10^−9M) or 5-aza-2′-deoxycytidine (5×10^−8M) with or without the somatostatin analog octreotide (10^−8M) or the dopamine agonist cabergoline (10^−8M). In experiments evaluating the combination of 5-aza-2′-deoxycytidine and octreotide or cabergoline, a pre-treatment with 5-aza-2′-deoxycytidine (5×10^−8M) has been performed for 24 hours.
Plates were further incubated at 37° C. and 5% CO2. After 3 and 6 days of treatment cells were harvested for DNA measurement. Plates for 6 days were refreshed after 3 days and compounds were added again. Quadruplicates of each treatment were performed. Measurement of total DNA-contents, representative for the number of cells, was performed using the bisbenzimide fluorescent dye (Hoechst™ 33258) (Boehring Diagnostics, La Jolla, Calif.), as previously described (Hofland L J, van Koetsveld P M, Lamberts S W. Percoll density gradient centrifugation of rat pituitary tumor cells: a study of functional heterogeneity within and between tumors with respect to growth rates, prolactin production and responsiveness to the somatostatin analog SMS 201-995. Eur J Cancer 1990; 26:37-44.).

[2] = tested on: human BON carcinoid cells; test: Apoptosis assay (DNA fragmentation, Cell Death Detection ELISA); assay type: cell-based; settings: for effect on apoptosis, measured as DNA fragmentation, drug alone: 10^−8M
Experimental: as §1, with “Trypan Blue staining was used to assess cell viability, which always exceeded 95%.” left out
After trypsinization BON cells were plated in 24-well plates at a density of 1.5-2×10^4 cells/well. These plates were placed in a 37° C., 5% CO2 incubator. Three days later the medium was refreshed in the presence and absence (control group) of 5-aza-2′-deoxycytidine at different concentrations in the dose curve response experiment (10^−5M, 10^−6M, 10^−7M, 10^−8M and 10^−9M) or 5-aza-2′-deoxycytidine (5×10^−8M) with or without the somatostatin analog octreotide (10^−8M) or the dopamine agonist cabergoline (10^−8M).
Quadruplicates of each treatment were performed. After an additional incubation of 3 days, apoptosis was assessed using a commercially available ELISA kit (Cell Death Detection ELISAPlus, Roche Diagnostic GmbH, Penzberg, Germany). This assay is based on a quantitative sandwich-enzyme-immunoassay-principle, using mouse monoclonal antibodies directed against DNA and histones, respectively. This allows the specific determination of mono- and oligo-nucleosomes in the cytoplasmatic fraction of cell lysate, typical for apoptosis. The standard protocol supplied by the manufacturer was used. Briefly, the medium was carefully removed by suction, cells were incubated in 100 μl of lysis buffer (provided with the Cell Death Detection ELISAPlus assay). After lysis of the cells the solution was incubated with anti-DNA and anti-histone antibodies in a streptavidin-coated 96-well plate for 2 hours. After washing, the immunocomplex-bound peroxidase was probed with 2,2′-azino-di[3-ethylbenzthiazoline sulfonate] (a chromogenic substrate) for spectrophotometric detection at 405 nm, to quantify the amount of nucleosomes bound to the plate. Relative apoptosis was determined by a ratio of the average absorbance of the treatment wells to the average absorbance of the control wells.

Row | Structure (SMILES) | inhibition of BON carcinoid cell growth, dose curve ([1]; 3 or 6 day incubation, 10^−9M to 10^−5M, data not shown) | inhibition of BON carcinoid cell growth at low dose ([1]; 5×10^−8M, 6 days, p<0.001 vs control) | IC25 value of the tumor cell growth inhibitory effect ([1]; after 6 days of incubation) | induction of DNA fragmentation ([2]; 5×10^−8M, 3 days, p<0.001 vs control) | induction of DNA fragmentation, dose curve ([2]; 3 day incubation, 10^−9M to 10^−5M, data not shown) | effect of AZA alone on DNA fragmentation (FIG. 3, FIG. 4) ([2]; AZA (5 nM) alone) | EC25 value of the apoptosis inducing effect ([2]; after 3 days of incubation) | effect on BON carcinoid cell growth, measured as DNA content ([1]; 3 or 6 day incubation) | effect on apoptosis, measured as DNA fragmentation, drug alone ([2]; 3 day incubation)
1 | Nc1ncn([C@H]2C[C@H](O)[C@@H](CO)O2)c(=O)n1 [5-aza-2′-deoxycytidine] | time- and dose-dependent manner | significantly inhibited | approximately 5×10^−8 M | approximately 100% | dose-dependent manner | moderate effect | approximately 5×10^−8 M |  | 
2 | C=CCN1C[C@H](C(=O)N(CCCN(C)C)C(=O)NCC)C[C@@H]2c3cccc4[nH]cc(c34)C[C@H]21 [cabergoline] |  |  |  |  |  |  |  | no statistically significant effect | no statistically significant effect
3 | C[C@@H](O)[C@@H]1NC(=O)[C@H](CCCCN)NC(=O)[C@@H](Cc2c[nH]c3ccccc23)NC(=O)[C@H](Cc2ccccc2)NC(=O)[C@@H](NC(=O)[C@H](N)Cc2ccccc2)CSSC[C@@H](C(=O)N[C@H](CO)[C@@H](C)O)NC1=O [octreotide] |  |  |  |  |  |  |  | no statistically significant effect | no statistically significant effect
